Columns and labels:
[1] = tested on: human T-cell line CCRF/CEM; experiment: In vitro cytotoxicity in cell culture, CCRF/CEM; format: cell-based; conditions: read-out: ED50 (the source's name)
Method: (§1) The cytotoxicity of the test compounds was determined in cell culture using the human T-cell line CCRF/CEM (ATCC CCL 119) and also the human breast cancer cell line MCF-7 [H.D. Soule, et al., J.. Nat. Cancer Inst., 51, 1409 (1973)].

DHFR [2] = target: T1, DHFR (Rattus norvegicus, UniProt Q920D2); experiment: In vitro DHFR binding affinities (DHFR inhibition), rat liver enzyme; format: biochemical
T1 construct: DHFR isolated from bacterial and mammalian sources; from tissue; host or cells: rat liver
T1 sequence (Q920D2 1-187): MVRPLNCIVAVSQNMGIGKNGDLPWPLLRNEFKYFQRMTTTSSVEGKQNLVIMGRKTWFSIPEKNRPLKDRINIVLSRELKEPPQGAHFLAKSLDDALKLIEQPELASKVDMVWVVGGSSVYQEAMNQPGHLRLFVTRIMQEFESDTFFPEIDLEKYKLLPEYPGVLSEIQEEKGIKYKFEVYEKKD
Method: (§2) The inhibition by the title compound of DHFR isolated from bacterial and mammalian sources was determined using known procedures [B. Roth et al., J. Med. Chem., 24, 933 (1981)].

[3] = tested on: human breast cancer cell line MCF-7; experiment: In vitro cytotoxicity in cell culture, MCF-7; format: cell-based; conditions: MCF7, Cell line MCF-7, cytotoxicity, read-out: ED50 (the source's name)
Method: as §1

DHFR [4] = target: T2, DHFR (Escherichia coli, UniProt P0ABQ4); experiment: In vitro DHFR binding affinities (DHFR inhibition), E. coli enzyme; format: biochemical
T2 construct: DHFR isolated from bacterial and mammalian sources; endogenous in cells
Method: as §2

Structure (SMILES) | EC50 [1] [nM] | IC50 (DHFR [2]) [nM] | EC50 [3] [nM] | IC50 (DHFR [4]) [nM]
COc1ccc(O)c(Cc2cnc3nc(N)nc(N)c3c2C)c1 [Compound A, 2,4-diamino-5-methyl-6-(2-hydroxy-5-methoxybenzyl)pyrido[2,3-d] pyrimidine] | 400 | 18 | 790 | 8
COc1ccc(O)cc1Cc1cnc2nc(N)nc(N)c2c1C [Compound B, 2,4-diamino-5-methyl-6-(5-hydroxy-2-methoxybenzyl)pyrido[2,3-d] pyrimidine] | 80 | 12 | 750 | 16
